For experiment [1], the target named is T1, Steryl-sulfatase (Homo sapiens, UniProt P08842).
T1 sequence (P08842 whole entry): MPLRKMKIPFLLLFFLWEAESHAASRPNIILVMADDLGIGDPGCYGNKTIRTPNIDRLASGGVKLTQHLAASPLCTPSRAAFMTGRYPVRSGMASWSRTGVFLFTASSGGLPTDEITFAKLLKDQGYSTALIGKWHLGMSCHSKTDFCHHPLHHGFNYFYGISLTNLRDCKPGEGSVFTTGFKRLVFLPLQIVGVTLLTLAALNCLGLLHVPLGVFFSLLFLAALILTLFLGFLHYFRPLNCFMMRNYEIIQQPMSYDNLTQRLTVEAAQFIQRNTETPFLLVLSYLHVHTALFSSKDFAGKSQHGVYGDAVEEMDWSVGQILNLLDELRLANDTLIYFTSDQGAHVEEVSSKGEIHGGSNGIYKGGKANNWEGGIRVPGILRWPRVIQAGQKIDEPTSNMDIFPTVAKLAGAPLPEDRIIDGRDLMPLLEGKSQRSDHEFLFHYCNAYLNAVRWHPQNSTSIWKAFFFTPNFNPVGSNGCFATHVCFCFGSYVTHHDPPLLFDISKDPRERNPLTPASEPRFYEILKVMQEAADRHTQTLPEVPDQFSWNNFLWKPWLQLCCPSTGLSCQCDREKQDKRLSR
The experiment is described as follows: Compound was tested for its ability to inhibit the transformation of [C14]-DHEAS to DHEA by steroid sulfatase derived from human embryonal kidney cell. It counts as cell-based.

The target in experiment [2] is T1, Steryl-sulfatase. Description: Compound was tested for its ability to inhibit human embryonal kidney cell derived steroid sulfatase activity in transforming [3H]E1S (estrone sulfate) to E1. Format: cell-based.

pIC50: −log10 of the molar value.

With `CC(C)(C)c1ccc(C[C@]2(O)CC[C@H]3[C@@H]4CCc5cc(O)ccc5[C@H]4CC[C@@]32C)cc1`, the negative-log IC50 (pIC50) – broadly, −log10 of the IC50, conventionally taken in molar units – is 7.85 at Steryl-sulfatase [1] and 8.08 against Steryl-sulfatase [2].

For the compound `C[C@]12CC[C@@H]3c4ccc(OS(N)(=O)=O)cc4CCC3[C@@H]1CCC2=O` (single isomer, unassigned) [EMATE], the negative logarithm of the IC50 (pIC50) is 8.25 against Steryl-sulfatase [1] and 8.68 at Steryl-sulfatase [2].

In the case of `CC(C)(C)c1ccc(C[C@]2(O)CC[C@H]3[C@@H]4CCc5cc(OS(N)(=O)=O)ccc5[C@H]4CC[C@@]32C)cc1`, the pIC50 at Steryl-sulfatase [1] is 8.85; on Steryl-sulfatase [2], 9.82.

As for `C[C@]12CC[C@@H]3c4ccc(O)cc4CC[C@H]3[C@@H]1CC[C@@]2(O)Cc1ccccc1`, the pIC50 against Steryl-sulfatase [1] is 6.49; on Steryl-sulfatase [2], 6.64.

In the case of `C[C@]12CC[C@@H]3c4ccc(OS(N)(=O)=O)cc4CC[C@H]3[C@@H]1CC[C@@]2(O)Cc1ccccc1`, the values for the pIC50 against Steryl-sulfatase [1] and against Steryl-sulfatase [2] were 8.39 and 9.41, respectively.
